Measured values from patent EP0298466A2, “Substituted alkene carboxylic acid amides and derivatives” (F. HOFFMANN-LA ROCHE AG, priority 1987, dated 1989).

Key:
PAF Binding = target: T1, PAF Binding (Canis lupus familiaris, UniProt A0A8I3NSH0); test: PAF binding assay (³H-PAF, dog platelets); settings: washed dog platelets (2 x 10⁷ platelets), 10 minutes at room temperature, read-out: Inhibition of PAF Binding IC₅₀
T1 construct: from tissue; host or cells: washed platelets from dog blood
T1 sequence (A0A8I3NSH0 1-343): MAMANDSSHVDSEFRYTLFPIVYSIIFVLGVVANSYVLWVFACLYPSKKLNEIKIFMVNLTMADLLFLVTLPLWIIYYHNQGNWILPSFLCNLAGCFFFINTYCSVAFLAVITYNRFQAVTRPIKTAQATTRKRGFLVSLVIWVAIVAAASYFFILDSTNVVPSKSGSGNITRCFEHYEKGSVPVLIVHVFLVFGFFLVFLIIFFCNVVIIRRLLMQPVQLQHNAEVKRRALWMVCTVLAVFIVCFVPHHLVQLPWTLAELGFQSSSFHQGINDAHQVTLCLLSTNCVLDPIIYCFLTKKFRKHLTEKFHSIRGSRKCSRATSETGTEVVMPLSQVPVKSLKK
Protocol: The binding assay was done in 400 µl polyethylene microcentrifuge tubes (Beckman) containing 50 µl of an oil mixture of 2 parts of Siliconol AR200 (Serva) and 1 part of Silicone Fluid (Arthur H. Thomas). Buffer, standards, or analogs (150 µl total volume) were added to the tubes. Radiolabelled ³H-PAF (50 µl) was then added to the tubes. The reaction was started by the addition of 50 µl of dog platelets (2 x 10⁷ platelets). The tubes were capped, inverted several times to mix, and incubated for 10 minutes at room temperature. The platelets were separated from the incubation mixture by centrifuging 1 minute in a Beckman Microfuge B centrifuge. The tip of the tubes were cut off, and the platelets were washed out of the tips with 200 µl of 50% methanol (Burdick and Jackson). Aquasol (NEN, 10 ml) was added and the radioactivity in the samples was determined using an LS 8100 Beckman liquid scintillation counter linked to a Techtran tape recorder. Data was processed through an in-house computer system. Alternatively, radioactivity was determined using a Searle Mark III liquid scintillation counter linked to a Iso-Data microprocessor.
Blood was collected from anesthesized or unanesthesized dogs into 50 ml plastic centrifuge tubes containing 3.8% sodium citrate as the anticoagulant (1 volume of citrate/9 volumes of blood). The red cells were removed by centrifugation for 15 minutes at 600 rpm (100-125 g) at room temperature. An aliquot of the supernatant platelet rich plasma (PRP) was saved for cell counting and the remainder was acidified to pH 6.5 with 0.15 M citric acid. The platelet pellet was obtained after a 10 minute centrifugation at 2000 rpm (1000 g) at room temperature. Washed platelets were prepared by resuspending the platelet pellet once with PBS containing 1 mM of EDTA, centrifuging as noted, and then resuspending the platelets in 0.1% of BSA/PBS. An aliquot of the washed platelets was counted. Platelets used for binding assays were diluted to 2 x 10⁷ platelets/assay tube (4 x 10⁸ platelets/ml). Platelet counting was done using a Royco Cell-Crit 921.

[1] = system: PAF Induced Bronchoconstriction; test: PAF Induced Bronchoconstriction Assay; assay type: in vivo, guinea pigs; settings: Cavia porcellus; 1mg/Kg iv, 1 minute pretreatment, guinea pig, PAF challenge 1.0µg/kg intravenous; percent inhibition, spread = standard error of the mean
Protocol: Male guinea pigs (Hartley Strain, 400-500 g) were anesthetized with urethane (2 g/kg, i.p.). Each animals' trachea was cannulated and the guinea pigs were respirated using a Harvard small animal rodent respirator (3.0 cc stroke volume, 40 breaths per min.). Tracheal pressure was recorded from a cannula inserted in the trachea and connected to a Statham pressure Transducer.
The jugular vein was cannulated for administering compounds. Spontaneous breathing was arrested with succinylcholine (1.2 mg/kg, i.v.) administered 2 minutes prior to intravenous injection of platelet activating factor (PAF).
For the intravenous testing, the guinea pig is given a 5-minute pretreatment with propranolol at a dose of 0.1 mg/kg intravenously. The test compound is administered with a 1 minute pretreatment prior to intravenous challenge with PAF. The animal is then challenged with a 1.0µg/kg intravenous dose of PAF and the change in tracheal pressure is measured.
The change in tracheal pressure is determined by subtracting the steady state baseline achieved after administration of succinylcholine from the peak bronchoconstriction seen after challenge with PAF. The mean is calculated for each test compound and compared to the mean of the control animals to give the percent inhibition of bronchoconstriction. The standard error is calculated as the standard error of the mean.

[2] = target: T2, Thromboxane Synthase (TXA₂ syn.) (Homo sapiens, UniProt P24557); test: TXA₂ Synthesis Inhibition (microsomal fractions from human platelets); assay type: biochemical; settings: human platelet microsomes, ¹⁴C-PGH₂ 10µM, 22° for 2 minutes; read-out: Inhibition of TXA₂ Synthetase IC₅₀
T2 construct: using microsomal fractions from human platelets as enzyme source; from tissue; host or cells: microsomal fraction of human platelets
T2 sequence (P24557 1-533): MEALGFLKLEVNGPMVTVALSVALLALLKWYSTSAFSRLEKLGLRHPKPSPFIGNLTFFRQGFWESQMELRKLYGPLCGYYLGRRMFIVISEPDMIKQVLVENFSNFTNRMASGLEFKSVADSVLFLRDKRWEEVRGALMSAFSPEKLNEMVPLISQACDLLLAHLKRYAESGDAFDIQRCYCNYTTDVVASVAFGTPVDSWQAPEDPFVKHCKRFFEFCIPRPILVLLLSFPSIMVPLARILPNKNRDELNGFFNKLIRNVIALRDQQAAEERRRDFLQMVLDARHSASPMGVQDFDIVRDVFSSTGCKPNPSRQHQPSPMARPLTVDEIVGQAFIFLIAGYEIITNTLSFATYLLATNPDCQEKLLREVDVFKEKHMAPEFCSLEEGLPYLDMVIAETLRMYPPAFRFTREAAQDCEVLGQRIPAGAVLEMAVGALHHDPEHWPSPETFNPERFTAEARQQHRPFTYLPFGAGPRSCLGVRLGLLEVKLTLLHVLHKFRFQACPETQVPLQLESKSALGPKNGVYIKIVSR
Protocol: Thromboxane Synthase (TXA₂ syn.) inhibitory activity is measured by following the conversion of […] using microsomal fractions from human platelets as enzyme source. In the aqueous incubation medium, the TXA₂ decomposes rapidly into TXB₂. The amount of TXA₂ syn, is adjusted so that under the conditions of the assay approximately 80-90% of the substrate, PGH₂, is converted to product in control tubes. To prepare ¹⁴C-PGH₂, ¹⁴C-AA(50-60mCi/mmole) is incubated with sheep seminal vesicular gland microsomes for 1.5 min, at 37° and then the ¹⁴C-PGH₂ is extracted with diethylether, purified on columns of Sephadex LH-20 or silicic acid, and stored in acetone at -70°C. Incubations are done as follows, Sufficient ¹⁴C-PGH₂ to yield a final substrate concentration of 10µM (about 30,000 cpm) is added to the incubation tubes and then the acetone is removed under nitrogen. The tubes are placed in an ice bath and then 215 µl of ice cold phosphate buffered saline, 10 µl of ethanol (control) or of test drug in ethanol and 25 µl of the microsomal suspension are added with mixing in that order as rapidly as possible. The tubes are incubated at 22° for 2 minutes, the reaction is stopped and then the radioactive products and the unconverted PGH₂ are extracted and analyzed by thin layer chromatography. The amount of ¹⁴C-PGH₂ converted to products is analyzed by thin layer chromatography. The amount of ¹⁴C-PGH₂ converted to products was used as a measure of TXA₂ synthase activity. Inhibitors were tested initially at a concentration of 100 µM. IC₅₀ values were calculated by linear regression analysis of successive 10 fold dilutions of the test compound concentration.

SMILES | IC50 [2] [nM] | IC50 (PAF Binding) [nM] | inhibition in vivo at 1 mg/kg [1] [%]
CCCCCc1c(/C=C/C(=O)N[C@H](C)CCCc2cccnc2)sc2cc(OC)ccc12 [[R-(E)]-3-(6-Methoxy-3-pentylbenzo-[b]thien-2-yl)-N-[1-methyl-4-(3-pyridinyl)butyl]-2-propenamide] |  | 24 | 98
COc1ccc(C2=C(/C=C/C(=O)N[C@H](C)CCCc3cccnc3)CCc3cc(OC)ccc32)cc1 [[R-(E)]-3-[3,4-Dihydro-6-methoxy-1-(4-methoxyphenyl)-2-naphthalenyl]-N-[1-methyl-4-(3-pyridinyl)butyl]-2-propenamide] |  | 30 | 95 ± 2
CCCCCC1=C(/C=C/C(=O)N[C@H](C)CCCc2cccnc2)Cc2cc(OC)ccc21 [[R-(E)]-3-(6-methoxy-3-pentylindene-2-yl)-N-[1-methyl-4-(3-pyridinyl)butyl]-2-propenamide] |  | 33 | 96
COc1ccc(-c2c(/C=C/C(=O)N[C@H](C)CCCc3cccnc3)ccc3cc(OC)ccc23)cc1 [[R-(E)]-3-[6-Methoxy-1-(4-methoxyphenyl)-2-naphthalenyl]-N-[1-methyl-4-(3-pyridinyl)butyl]-2-propenamide] |  | 55 | 92
COc1cccc(-c2c(/C=C/C(=O)NCCCCc3cccnc3)ccc3ccc(OC)cc23)c1 [(E)-3-[7-methoxy-1-(3-methoxyphenyl)-2-naphthalenyl]-N-[4-(3-pyridinyl)butyl]-2-propenamide] |  | 8 | 62
CCCCc1c(/C=C/C(=O)N[C@H](C)CCCc2cccnc2)ccc2cc(OC)ccc12 [[R-(E)]-3-(1-Butyl-6-methoxy-2-naphthalenyl)-N-[1-methyl-4-(3-pyridinyl)butyl]-2-propenamide] |  | 7 | 95 ± 1
CCCCC1=C(/C=C/C(=O)N[C@H](C)CCCc2cccnc2)CCc2cc(OC)ccc21 [[R-(E)]-3-(1-Butyl-3,4-dihydro-6-methoxy-2-naphthalenyl)-N-[1-methyl-4-(3-pyridinyl)butyl]-2-propenamide] |  |  | 94 ± 2
CCCCc1c(/C=C/C(=O)N[C@H](C)CCCc2cccnc2)cc(OC)c2ccc(OC)cc12 [[R-(E)]-3-(1-Butyl-4,7-dimethoxy-2-naphthalenyl)-N-[1-methyl-4-(3-pyridinyl)butyl]-2-propenamide] |  | 3 | 80
O=C(C=C(c1ccccc1)c1ccccc1)NCCCCc1cccnc1 [3,3-Diphenyl-N-[4-(3-pyridinyl)butyl]-2-propenamide] | 100 to 1000 |  | 
CCCCc1c(/C=C/C(=O)N[C@H](C)CCCc2cccnc2)ccc2c(OC)cccc12 [[R-(E)]-3-(1-Butyl-5-methoxy-2-naphthalenyl)-N-[1-methyl-4-(3-pyridinyl)butyl]-2-propenamide] |  | 6 | 50
CCCCc1c(/C=C/C(=O)N[C@H](C)CCCc2cccnc2)ccc2ccc(OC)cc12 [[R-(E)]-3-(1-Butyl-7-methoxy-2-naphthalenyl)-N-[1-methyl-4-(3-pyridinyl)butyl]-2-propenamide] |  | 15 | 
CCCCCc1c(/C=C/C(=O)N[C@H](C)CCCc2cccnc2)oc2cc(OC)ccc12 [[R-(E)]-3-(6-Methoxy-3-pentylbenzofuran-2-yl)-N-[1-methyl-4-(3-pyridinyl)butyl]-2-propenamide] |  |  | 89
CCCCc1c(/C=C/C(=O)N[C@H](C)CCCc2cccnc2)cc(OC)c2ccccc12 [[R-(E)]-3-(1-Butyl-4-methoxy-2-naphthalenyl)-N-[1-methyl-4-(3-pyridinyl)butyl]-2-propenamide] |  | 1 | 90

Now from value to molecule, other results behind:

IC50 [2] [nM] | SMILES | IC50 (PAF Binding) [nM] | inhibition in vivo at 1 mg/kg [1] [%]
1000 to 10000 | O=C(CCC=C(c1ccc(F)cc1)c1ccc(F)cc1)NCCCCc1cccnc1 [5,5-bis(4-fluorophenyl)-N-[4-(3-pyridinyl)butyl]-4-pentenamide] |  | 
1000 | O=C(CC=C(c1ccccc1)c1ccccc1)NCCCCc1cccnc1 [4,4-Diphenyl-N-[4-(3-pyridinyl)butyl]-3-butenamide] |  | 
1000 to 10000 | COc1ccc(C(=CCCC(=O)NCCCCc2cccnc2)c2ccc(OC)cc2)cc1 [5,5-bis(4-methoxyphenyl)-N-[4-(3-pyridinyl)butyl]-4-pentenamide] |  | 
10 to 100 | O=C(CCCCCCC=C(c1ccccc1)c1ccccc1)NCCCCc1cccnc1 [9,9-Diphenyl-N-[4-(3-pyridinyl)butyl]-8-nonenamide] |  | 
100 to 1000 | O=C(CCC=C(c1ccccc1)c1ccccc1)NCCCCc1cccnc1 [5,5-Diphenyl-N-[4-(3-pyridinyl)butyl]-4-pentenamide] |  | 
100 to 10000 | O=C(CCCCC=C(c1ccccc1)c1ccccc1)NCCCCc1cccnc1 [7,7-Diphenyl-N-[4-(3-pyridinyl)butyl]-6-heptenamide] |  | 
100 | O=C(CCCC=C(c1ccccc1)c1ccccc1)NCCCCc1cccnc1 [6,6-Diphenyl-N-[4-(3-pyridinyl)butyl]-5-hexenamide] |  | 
100 to 1000 | O=C(CCCCCC=C(c1ccccc1)c1ccccc1)NCCCCc1cccnc1 [8,8-Diphenyl-N-[4-(3-pyridinyl)butyl]-7-octenamide] |  | 
